Measured values as given in ChEMBL document CHEMBL1671774, “An efficient synthesis of the precursor of AI-2, the signalling molecule for inter-species quorum sensing” (Bioorg Med Chem, 2011).
Activity calls are given as the source filed them. The rule behind the calls is not given here.

Tests used:
[1] = target: Autoinducer 2-binding periplasmic protein LuxP (Vibrio harveyi) (UniProt P54300); test: Induction of LuxP-dependent quorum sensing in Vibrio harveyi MM32 assessed as induction of bioluminescence intensity after 4 hrs
Chain of Autoinducer 2-binding periplasmic protein LuxP (Vibrio harveyi) (P54300 whole entry): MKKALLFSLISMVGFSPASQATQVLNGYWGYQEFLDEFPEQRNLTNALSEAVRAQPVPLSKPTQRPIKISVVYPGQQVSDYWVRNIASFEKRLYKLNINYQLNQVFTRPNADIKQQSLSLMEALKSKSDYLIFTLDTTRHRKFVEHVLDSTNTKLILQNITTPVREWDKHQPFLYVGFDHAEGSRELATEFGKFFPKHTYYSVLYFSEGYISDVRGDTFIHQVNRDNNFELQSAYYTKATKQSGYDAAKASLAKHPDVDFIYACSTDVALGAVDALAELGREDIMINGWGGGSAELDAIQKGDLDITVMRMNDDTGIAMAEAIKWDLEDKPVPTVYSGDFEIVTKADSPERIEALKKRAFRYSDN

[2] = target: Autoinducer 2-binding periplasmic protein LuxP (Vibrio harveyi) (UniProt P54300); test: Binding affinity to LuxP in Vibrio harveyi MM32 by FRET method
Escherichia coli [3] = test: Induction of LsrB-dependent quorum sensing in Escherichia coli KX1446 assessed as expression of Lsr system at 40 uM by beta-galactosidase reporter assay
Escherichia coli [4] = test: Ratio of compound activity over DPD activity for induction of LsrB-dependent quorum sensing in Escherichia coli KX1446

SMILES | Activity [1] | Activity [2] | Activity (Escherichia coli [3]) | Ratio (Escherichia coli [4])
C[C@]12OC[C@H](O)[C@@]1(O)O[B-](O)(O)O2 | Active |  |  | 
CC(=O)C(=O)[C@@H](O)CO | Active | Active | inactive | 
C[C@@]1(O)OC[C@H](O)C1(O)O |  |  | Active | 6
